Like-named read-outs stand apart in the source and are kept apart here. Where a SMILES comes first, the peptide text is derived from it.
Key:
HLA-A03.01 = HLA-A03.01 (Homo sapiens, UniProt P04439); test: Class I MHC peptide binding affinity (displacement of radiolabeled reference peptide); conditions: allele A03.01; read-out: Observed Affinity (IC50; (nM))
HLA-A02.01 [1] = molecular target: HLA-A02.01 (Homo sapiens, UniProt P04439, D140Y/D185E/D98H/E176V/E277Q/G131W/G231S/I119V/I121R/I166T/I218V/L300P/L318F/N151K/N90K/P208A/P217A/Q86G/Q94H/R138H/R169H/T345S); test: as above; conditions: (nM)), allele A02.01
Method in brief: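 Read-out: radioactivity of reference peptide retained on MHCI, separated from free label by gel-filtration size exclusion. Competing peptides are titrated against the preformed complexes and incubated two days beforehand.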

HLA-A02.01 [2] = molecular target: T1, HLA-A02.01 (Homo sapiens, UniProt P04439, D140Y/D185E/D98H/E176V/E277Q/G131W/G231S/I119V/I121R/I166T/I218V/N151K/N90K/P208A/P217A/Q86G/Q94H/R138H/R169H); test: Class I MHC peptide binding stability (pMHC-I dissociation, 125I-labeled light chain); conditions: allele A02.01
T1 construct: made in house; host or cells: E. coli

[3] = read-out: Observed Affinity (IC50

IC50 (HLA-A03.01)	Stability (T1/2 (h)) (HLA-A02.01 [2])	IC50 (HLA-A02.01 [1]; [3])	Molecule	IC50 (HLA-A02.01 [1]; Observed Affinity (IC50)
12.5 nM	–	–	CC(C)C[C@H](NC(=O)[C@@H](NC(=O)[C@H](CO)NC(=O)[C@H](CO)NC(=O)[C@H](CC(C)C)NC(=O)[C@@H](N)CCCNC(=N)N)C(C)C)C(=O)N[C@@H](CCC(N)=O)C(=O)N[C@@H](CCCNC(=N)N)C(=O)N[C@@H](Cc1ccccc1)C(=O)N[C@@H](CCCNC(=N)N)C(=O)O	–
122 nM	–	–	CC[C@H](C)[C@H](NC(=O)[C@H](C)NC(=O)[C@H](CS)NC(=O)[C@@H](NC(=O)[C@@H](N)Cc1ccc(O)cc1)[C@@H](C)O)C(=O)N[C@H](C(=O)N[C@H](C(=O)N[C@H](C(=O)N[C@@H](CCCCN)C(=O)O)C(C)C)[C@@H](C)O)[C@@H](C)O	–
57.5 nM	–	–	CC[C@H](C)[C@H](NC(=O)[C@H](C)N)C(=O)N[C@@H](CO)C(=O)N[C@H](C(=O)N[C@@H](CCCNC(=N)N)C(=O)N[C@@H](CC(=O)O)C(=O)N1CCC[C@H]1C(=O)N[C@@H](CC(C)C)C(=O)N[C@@H](CO)C(=O)N[C@@H](CCCCN)C(=O)O)[C@@H](C)O (H-AISTRDPLSK-OH; N-terminus and C-terminus assumed)	–
216 nM	–	–	CC(C)C[C@H](NC(=O)[C@H](C)N)C(=O)N[C@@H](Cc1ccccc1)C(=O)N[C@@H](Cc1ccccc1)C(=O)N[C@@H](Cc1ccccc1)C(=O)N[C@@H](Cc1ccccc1)C(=O)N[C@@H](Cc1ccccc1)C(=O)N[C@@H](CCC(=O)O)C(=O)N[C@H](C(=O)N[C@@H](CCCCN)C(=O)O)[C@@H](C)O (H-ALFFFFFETK-OH; N-terminus and C-terminus assumed)	–
2340 nM	–	–	CSCC[C@H](NC(=O)[C@H](C)N)C(=O)N[C@H](C(=O)N[C@H](C(=O)N[C@@H](CO)C(=O)N[C@@H](CO)C(=O)N[C@@H](CO)C(=O)N[C@@H](CCC(N)=O)C(=O)N[C@@H](CCCCN)C(=O)N[C@@H](CC(N)=O)C(=O)O)[C@@H](C)O)[C@@H](C)O (H-AMTTSSSQKN-OH; N-terminus and C-terminus assumed)	–
63.6 nM	–	–	CC(C)C[C@H](NC(=O)[C@@H](NC(=O)[C@@H](NC(=O)[C@@H](N)CS)[C@@H](C)O)[C@@H](C)O)C(=O)N[C@@H](CC(N)=O)C(=O)N[C@@H](CO)C(=O)N1CCC[C@H]1C(=O)N1CCC[C@H]1C(=O)N[C@@H](CC(C)C)C(=O)N[C@@H](CCCCN)C(=O)O (H-CTTLNSPPLK-OH; N-terminus and C-terminus assumed)	–
66.9 nM	–	–	CSCC[C@H](NC(=O)[C@@H](NC(=O)[C@@H](N)Cc1ccccc1)C(C)C)C(=O)N[C@@H](CO)C(=O)N[C@@H](CC(=O)O)C(=O)N[C@H](C(=O)N[C@H](C(=O)N[C@@H](Cc1ccc(O)cc1)C(=O)N[C@@H](CCCCN)C(=O)O)[C@@H](C)O)[C@@H](C)O (H-FVMSDTTYK-OH; N-terminus and C-terminus assumed)	–
96.9 nM	–	–	CC(C)C[C@H](NC(=O)[C@H](CCC(N)=O)NC(=O)[C@H](CC(C)C)NC(=O)[C@@H](N)Cc1c[nH]cn1)C(=O)N[C@@H](CCCCN)C(=O)N[C@@H](CO)C(=O)N[C@@H](CS)C(=O)N[C@@H](CCCNC(=N)N)C(=O)N[C@@H](CCCNC(=N)N)C(=O)N[C@@H](CCCCN)C(=O)O (H-HLQLKSCRRK-OH; N-terminus and C-terminus assumed)	–
1250 nM	–	–	CC[C@H](C)[C@H](N)C(=O)N[C@H](C(=O)N[C@H](C(=O)N[C@H](C(=O)N[C@@H](CCCCN)C(=O)N[C@@H](C)C(=O)N[C@H](C(=O)N[C@@H](CCC(=O)O)C(=O)N[C@H](C(=O)N[C@@H](CCCCN)C(=O)O)[C@@H](C)O)[C@@H](C)O)C(C)C)[C@@H](C)O)[C@@H](C)O (H-ITTVKATETK-OH; N-terminus and C-terminus assumed)	–
115 nM	–	–	CC[C@H](C)[C@H](NC(=O)[C@@H](N)CCCCN)C(=O)N[C@@H](CO)C(=O)N[C@@H](CC(N)=O)C(=O)N[C@@H](Cc1c[nH]c2ccccc12)C(=O)N[C@@H](CO)C(=O)N[C@@H](CC(C)C)C(=O)N[C@@H](CCCCN)C(=O)N[C@@H](CCCCN)C(=O)N[C@H](C(=O)O)C(C)C (H-KISNWSLKKV-OH; N-terminus and C-terminus assumed)	–
–	0.8 h	602 nM	CSCC[C@H](NC(=O)[C@H](CCC(=O)O)NC(=O)[C@H](CC(C)C)NC(=O)[C@H](CC(C)C)NC(=O)[C@H](CC(C)C)NC(=O)[C@H](CC(=O)O)NC(=O)[C@H](CS)NC(=O)[C@H](CC(C)C)NC(=O)[C@@H]1CCCN1)C(=O)O (H-PLCDLLLEM-OH; N-terminus and C-terminus assumed)	–
–	0.9 h	2010 nM	CSCC[C@H](NC(=O)[C@H](CCC(=O)O)NC(=O)[C@H](CC(C)C)NC(=O)[C@H](CC(C)C)NC(=O)[C@H](CC(C)C)NC(=O)[C@H](CC(=O)O)NC(=O)[C@H](CS)NC(=O)[C@H](CC(C)C)NC(=O)[C@@H]1CCCN1)C(=O)N[C@@H](CC(C)C)C(=O)O (H-PLCDLLLEML-OH; N-terminus and C-terminus assumed)	–
–	4.2 h	151 nM	CSCC[C@H](NC(=O)[C@H](CCC(=O)O)NC(=O)[C@H](CC(C)C)NC(=O)[C@H](CC(C)C)NC(=O)[C@H](CC(C)C)NC(=O)[C@H](CC(=O)O)NC(=O)[C@H](CC(N)=O)NC(=O)[C@H](CC(C)C)NC(=O)[C@@H]1CCCN1)C(=O)O (H-PLNDLLLEM-OH; N-terminus and C-terminus assumed)	–
–	2.7 h	404 nM	CSCC[C@H](NC(=O)[C@H](CCC(=O)O)NC(=O)[C@H](CC(C)C)NC(=O)[C@H](CC(C)C)NC(=O)[C@H](CC(C)C)NC(=O)[C@H](CC(=O)O)NC(=O)[C@H](CO)NC(=O)[C@H](CC(C)C)NC(=O)[C@@H]1CCCN1)C(=O)O (H-PLSDLLLEM-OH; N-terminus and C-terminus assumed)	–
–	0.7 h	640 nM	CSCC[C@H](NC(=O)[C@H](CCC(=O)O)NC(=O)[C@H](CC(C)C)NC(=O)[C@H](CC(C)C)NC(=O)[C@H](CC(C)C)NC(=O)CNC(=O)[C@H](Cc1ccc(O)cc1)NC(=O)[C@H](CC(C)C)NC(=O)[C@@H]1CCCN1)C(=O)O (H-PLYGLLLEM-OH; N-terminus and C-terminus assumed)	–
–	0.4 h	390 nM	CC[C@H](C)[C@H](NC(=O)[C@H](Cc1ccc(O)cc1)NC(=O)[C@H](CC(C)C)NC(=O)[C@@H](N)CO)C(=O)N[C@H](C(=O)NCC(=O)N[C@@H](Cc1ccccc1)C(=O)N[C@@H](Cc1ccc(O)cc1)C(=O)NCC(=O)N[C@@H](C)C(=O)O)C(C)C (H-SLYIVGFYGA-OH; N-terminus and C-terminus assumed)	–
–	9.8 h	31 nM	CSCC[C@H](NC(=O)[C@@H](N)CO)C(=O)N[C@@H](CC(C)C)C(=O)N[C@H](C(=O)N[C@@H](CC(=O)O)C(=O)N[C@@H](CO)C(=O)N[C@@H](CC(C)C)C(=O)N[C@@H](Cc1ccccc1)C(=O)N[C@@H](CC(C)C)C(=O)O)[C@@H](C)O (H-SMLTDSLFL-OH; N-terminus and C-terminus assumed)	–
–	1.9 h	131 nM	CC[C@H](C)[C@H](NC(=O)[C@H](Cc1ccc(O)cc1)NC(=O)[C@@H]1CCCN1C(=O)[C@H](CO)NC(=O)[C@H](CC(N)=O)NC(=O)[C@H](CO)NC(=O)[C@H](CCC(=O)O)NC(=O)[C@H](Cc1c[nH]cn1)NC(=O)[C@H](CC(C)C)NC(=O)[C@@H](N)C(C)C)C(=O)O (H-VLHESNSPYI-OH; N-terminus and C-terminus assumed)	–
–	11 h	72 nM	CC[C@H](C)[C@H](NC(=O)[C@H](CC(C)C)NC(=O)[C@H](Cc1c[nH]cn1)NC(=O)[C@@H](NC(=O)[C@H](CO)NC(=O)[C@H](CC(C)C)NC(=O)[C@H](CC(C)C)NC(=O)[C@@H](N)C(C)C)C(C)C)C(=O)N[C@H](C(=O)O)C(C)C (H-VLLSVHLIV-OH; N-terminus and C-terminus assumed)	–
–	16.5 h	2 nM	CSCC[C@H](NC(=O)[C@@H](N)C(C)C)C(=O)N[C@@H](C)C(=O)N[C@@H](Cc1ccc(O)cc1)C(=O)N[C@H](C(=O)N[C@@H](CCSC)C(=O)N[C@@H](C)C(=O)NCC(=O)N[C@H](C(=O)O)C(C)C)C(C)C (H-VMAYVMAGV-OH; N-terminus and C-terminus assumed)	–
–	1.5 h	68 nM	LQMDFLVEIPA	–

Molecule	IC50 (HLA-A03.01)	Stability (T1/2 (h)) (HLA-A02.01 [2])	IC50 (HLA-A02.01 [1]; [3])	IC50 (HLA-A02.01 [1]; Observed Affinity (IC50)
CC[C@H](C)[C@H](NC(=O)[C@H](CS)NC(=O)[C@H](Cc1ccccc1)NC(=O)[C@H](CC(N)=O)NC(=O)[C@H](C)NC(=O)[C@H](CC(C)C)NC(=O)[C@@H](N)CS)C(=O)N[C@@H](Cc1ccccc1)C(=O)N[C@@H](CC(N)=O)C(=O)N[C@@H](CCCNC(=N)N)C(=O)O	222 nM	–	–	–
CC[C@H](C)[C@H](NC(=O)[C@H](Cc1c[nH]c2ccccc12)NC(=O)[C@H](CS)NC(=O)[C@H](Cc1ccccc1)NC(=O)[C@H](Cc1ccccc1)NC(=O)[C@@H](N)Cc1ccccc1)C(=O)N[C@@H](CC(C)C)C(=O)N[C@@H](CO)C(=O)N[C@@H](CS)C(=O)N[C@@H](CCCCN)C(=O)O (H-FFFCWILSCK-OH; N-terminus and C-terminus assumed)	597 nM	–	–	–
CC[C@H](C)[C@H](NC(=O)[C@H](CC(N)=O)NC(=O)[C@@H](N)CCSC)C(=O)N[C@@H](C)C(=O)N[C@@H](CC(N)=O)C(=O)N[C@@H](CC(C)C)C(=O)N[C@@H](CC(C)C)C(=O)NCC(=O)N[C@@H](C)C(=O)O (H-MNIANLLGA-OH; N-terminus and C-terminus assumed)	–	0.3 h	–	128 nM

From patent US20220282217A1, “COMPOSITIONS AND METHODS FOR PREPARING T CELL COMPOSITIONS AND USES THEREOF” (priority 2019, published 2022)
